Experimental data: paper PMC3930709, “Selective Activation of hTRPV1 by N-Geranyl Cyclopropylcarboxamide, an Amiloride-Insensitive Salt Taste Enhancer” (PLoS ONE, 2014)

What was measured:
hTRPA1 [1] = molecular target: T1, hTRPA1 (Homo sapiens, UniProt O75762); test: Measurement of Ca2+ influx (Fluo-4 AM, FlexStation III) in hTRPA1-expressing cells; assay type: cell-based; details: for block of NGCC activity on hTRPA1-expressing cells (dose-response): RR 30 µM, HC-030031 100 µM; for block of AITC activity on hTRPA1-expressing cells (dose-response): RR 30 µM: below 30 µM AITC, HC-030031 100 µM: below 10 µM AITC
T1 construct: expressed in transfected cells
T1 sequence (O75762 whole entry): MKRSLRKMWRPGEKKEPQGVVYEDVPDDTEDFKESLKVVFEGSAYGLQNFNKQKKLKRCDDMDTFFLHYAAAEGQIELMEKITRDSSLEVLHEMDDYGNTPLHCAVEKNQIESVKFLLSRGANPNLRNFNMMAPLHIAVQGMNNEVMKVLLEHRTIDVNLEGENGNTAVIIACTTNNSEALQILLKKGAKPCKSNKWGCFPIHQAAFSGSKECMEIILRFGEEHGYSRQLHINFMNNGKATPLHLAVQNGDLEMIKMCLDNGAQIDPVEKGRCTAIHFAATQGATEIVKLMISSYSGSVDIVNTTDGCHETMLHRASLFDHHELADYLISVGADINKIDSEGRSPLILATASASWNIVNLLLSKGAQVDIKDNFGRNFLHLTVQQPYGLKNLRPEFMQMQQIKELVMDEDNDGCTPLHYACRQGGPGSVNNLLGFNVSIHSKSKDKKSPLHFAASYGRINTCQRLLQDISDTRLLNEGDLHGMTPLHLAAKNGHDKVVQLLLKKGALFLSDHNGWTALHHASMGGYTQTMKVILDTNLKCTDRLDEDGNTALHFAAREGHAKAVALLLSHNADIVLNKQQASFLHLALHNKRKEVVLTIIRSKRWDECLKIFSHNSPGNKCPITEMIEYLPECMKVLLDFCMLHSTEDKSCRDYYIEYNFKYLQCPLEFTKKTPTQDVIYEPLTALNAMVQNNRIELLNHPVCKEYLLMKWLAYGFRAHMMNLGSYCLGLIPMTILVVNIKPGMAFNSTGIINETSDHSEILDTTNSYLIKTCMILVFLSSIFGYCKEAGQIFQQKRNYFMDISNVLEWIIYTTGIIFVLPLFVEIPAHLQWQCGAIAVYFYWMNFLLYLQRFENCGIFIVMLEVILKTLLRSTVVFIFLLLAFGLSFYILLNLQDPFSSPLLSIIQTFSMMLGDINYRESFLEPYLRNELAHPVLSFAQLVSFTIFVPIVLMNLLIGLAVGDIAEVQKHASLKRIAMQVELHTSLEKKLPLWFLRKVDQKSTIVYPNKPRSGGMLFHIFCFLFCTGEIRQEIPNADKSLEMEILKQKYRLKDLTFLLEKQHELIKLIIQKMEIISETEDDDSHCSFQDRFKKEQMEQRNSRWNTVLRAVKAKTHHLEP
Description: (§1) Flp-In 293 cell lines stably expressing hTRPA1constructed as previously reported was a gift from the professor Takumi Misaka at University of Tokyo. The hTRPA1-expressing cells were cultured in DMEM containing 10% FBS and 0.02% hygromycin B (Invitrogen). Flp-In 293 cell lines were maintained in DMEM containing 10% FBS. All cells were incubated at 37°C in a humidified atmosphere of 5% CO2.
(§2) The ligand-induced changes on cytosolic Ca^2+ level were monitored by a FlexStation III microplate reader (Molecular Devices). Fluo-4 AM (5 µM, Molecular Probes, Eugene, OR, USA) in assay buffer was loaded to the cells in 96-well black-wall plates for 30 min at 27°C. After dye treatment, each chemical was added to each well at 17 s and changes on intracellular Ca^2+ level were monitored by relative fluorescence units (ΔRFU, Ex = 485 nm; Em = 516 nm) for 120 s. […] The responses from at least three wells receiving the same stimulus were averaged. Plots of amplitude versus concentration were fitted using the Hill equation.

hTRPA1 [2] = molecular target: T1, hTRPA1; test: Whole-cell patch clamp recording, cells stably expressing hTRPA1; assay type: cell-based
Description: as §1
(§3) The whole-cell configuration was used to voltage-clamp at room temperature (22–25°C). Electrodes pulled from glass micropipette capillaries (Sutter Instrument) had resistances of 2–2.5 MΩ, and series resistance errors were compensated >60%. Fast and slow capacitances were compensated before the application of test-pulse. Recordings were performed using aHEKAEPC-10 amplifier with pulse software (HEKA Elektronik). The pipette solution contained: 140 mM KCl, 5 mM MgCl2, 10 mM HEPES, 0.1 mM 1,2-bis(2-aminophenoxy) ethane N,N,N’,N’-tetraacetic acid(BAPTA), 3 mM Na2ATP, and 0.1 mM Na3GTP, adjusted to pH 7.4 with KOH. The external Ringer’s solution used for recording TRPV1 and TRPA1 currents contained: 150 mM NaCl, 5 mM KCl, 1 mM MgCl2, 2 mM EGTA, 10 mM Glucose, and 10 mM HEPES, adjusted to pH 7.4 with NaOH. TRPV1 and TRPA1 currents were recorded by holding the cell at −80 mV. The external Ringer’s solution used for recording ASIC current contained: 160 mM NaCl, 5 mM KCl, 1 mM MgCl2, 2 mM CaCl2, and 10 mM HEPES, adjusted to pH 7.4 with tetramethylammonium hydroxide. For acidic solution of pH 6.0, HEPES was replaced with MES. ASIC currents were recorded by holding the cell at −70 mV. Reagents were obtained as follows: BAPTA, Na2ATP, Na3GTP, EGTA, and tetramethylammonium hydroxide (Sigma), HEPES (Calbiochem), MES (Alfa Aesar), and other chemicals (Merck).

hTRPA1 [3] = molecular target: T1, hTRPA1; test: Ca2+ imaging (Fura-2 AM) of hTRPA1-expressing Flp-In 293 cells; assay type: cell-based; details: RR 30 µM, HC-030031 100 µM
Description: Flp-In 293 cell lines stably expressing hTRPA1constructed as previously reported was a gift from the professor […] at University of Tokyo. The hTRPA1-expressing cells were cultured in DMEM containing 10% FBS and 0.02% hygromycin B (Invitrogen). Flp-In 293 cell lines were maintained in DMEM containing 10% FBS. All cells were incubated at 37°C in a humidified atmosphere of 5% CO2. […] Mock-transfected HEK293T cells, hTRPV1-expressing HEK293T cells, non-hTRPA1-expressing Flp-In 293 cells, and hTRPA1-expressing Flp-In 293 cells grown in 96-well black-wall plates were rinsed with assay buffer (130 mM NaCl, 10 mM glucose, 5 mM KCl, 2 […]2, 1.2 mM MgCl2, and 10 mM HEPES, pH 7.4) and loaded with 5 μM Fura-2 AM (Invitrogen) for 30 min at 27°C. The cells were washed with assay buffer and treated with ligands. […] The fluorescence intensities of Fura-2 excited at 340 and 380 nm were simultaneously measured at 510 nm using a computer-controlled filter changer (Lambda DG4; Sutter, San Rafael, CA, USA), an Andor Luca CCD camera (Andor Technology, Belfast, UK), and an inverted fluorescence microscope (IX-71; Olympus, Tokyo, Japan). Intracellular calcium images were recorded every 3-s for 60-s and analyzed using MetaFluor software (Molecular Devices, Sunnyvale, CA, USA).

hTRPV1 [4] = molecular target: T2, hTRPV1 (Homo sapiens, UniProt Q8NER1); test: Measurement of Ca2+ influx (Fluo-4 AM, FlexStation III) in hTRPV1-expressing cells; assay type: cell-based; details: RR 30 µM or CPZ 1 µM added with agonist
T2 construct: expressed in transfected cells; host or cells: HEK293T
T2 sequence (Q8NER1 whole entry): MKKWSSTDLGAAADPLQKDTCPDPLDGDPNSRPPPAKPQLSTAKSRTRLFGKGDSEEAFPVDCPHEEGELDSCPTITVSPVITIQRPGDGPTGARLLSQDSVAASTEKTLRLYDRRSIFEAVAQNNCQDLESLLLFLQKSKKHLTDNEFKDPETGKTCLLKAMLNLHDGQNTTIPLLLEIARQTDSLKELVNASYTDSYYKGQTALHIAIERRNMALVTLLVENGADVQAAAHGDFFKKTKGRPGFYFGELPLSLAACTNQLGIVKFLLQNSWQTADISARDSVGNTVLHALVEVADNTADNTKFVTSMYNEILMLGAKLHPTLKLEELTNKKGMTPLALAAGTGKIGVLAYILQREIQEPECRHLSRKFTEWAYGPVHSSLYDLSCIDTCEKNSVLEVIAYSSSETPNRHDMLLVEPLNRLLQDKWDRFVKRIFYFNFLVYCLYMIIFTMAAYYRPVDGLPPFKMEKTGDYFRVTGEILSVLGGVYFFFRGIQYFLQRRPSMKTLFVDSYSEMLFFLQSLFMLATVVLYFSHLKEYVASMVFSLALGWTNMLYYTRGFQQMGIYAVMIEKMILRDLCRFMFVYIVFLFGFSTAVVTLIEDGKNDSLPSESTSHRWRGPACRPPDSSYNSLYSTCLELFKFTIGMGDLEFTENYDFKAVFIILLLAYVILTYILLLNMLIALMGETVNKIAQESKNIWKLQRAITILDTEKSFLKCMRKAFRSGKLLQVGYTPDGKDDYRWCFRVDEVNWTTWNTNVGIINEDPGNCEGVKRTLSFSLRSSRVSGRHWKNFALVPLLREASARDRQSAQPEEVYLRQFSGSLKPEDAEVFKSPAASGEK
Description: as §2, with “hTRPV1 was constructed by amplification of the hTRPV1 region (NCBI accession number: NG_029716.1) and cloned into pEAK10 vector (Edge Biosystems, Gaithersburg, MD, USA). The hTRPV1 construct was amplified by PCR and the nucleotide sequence of the hTRPV1 gene was confirmed by sequencing with an ABI 3130 DNA genetic analyzer (Applied Biosystems, Foster City, CA, USA). […] After 6 h, transfected cells were seeded onto 96-well black-wall plate (BD Falcon Labware, Franklin Lakes, NJ, USA) for 18–26 h prior to their use in an experiment. The ligand-induced” for “The ligand-induced”

hTRPV1 [5] = molecular target: T2, hTRPV1; test: Ca2+ imaging (Fura-2 AM) of hTRPV1-expressing HEK293T cells; assay type: cell-based; details: NGCC 30 µM; RR 30 µM, CPZ 1 µM
Description: hTRPV1 was constructed by amplification of the hTRPV1 region (NCBI accession number: NG_029716.1) and cloned into pEAK10 vector (Edge Biosystems, Gaithersburg, MD, USA). The hTRPV1 construct was amplified by PCR and the nucleotide sequence of the hTRPV1 gene was confirmed by sequencing with an ABI 3130 DNA genetic analyzer (Applied Biosystems, Foster City, CA, USA). […] After 6 h, transfected cells were seeded onto 96-well black-wall plate (BD Falcon Labware, Franklin Lakes, NJ, USA) for 18-26 h prior to their use in an experiment. Mock-transfected HEK293T cells, hTRPV1-expressing HEK293T cells, non-hTRPA1-expressing Flp-In 293 cells, and hTRPA1-expressing Flp-In 293 cells grown in 96-well black-wall plates were rinsed with assay buffer (130 mM NaCl, 10 mM glucose, 5 mM KCl, 2 […]2, 1.2 mM MgCl2, and 10 mM HEPES, pH 7.4) and loaded with 5 μM Fura-2 AM (Invitrogen) for 30 min at 27°C. […] The fluorescence intensities of Fura-2 excited at 340 and 380 nm were simultaneously measured at 510 nm using a computer-controlled filter changer (Lambda DG4; Sutter, San Rafael, CA, USA), an Andor Luca CCD camera (Andor Technology, Belfast, UK), and an inverted fluorescence microscope (IX-71; Olympus, Tokyo, Japan). Intracellular calcium images were recorded every 3-s for 60-s and analyzed using MetaFluor software (Molecular Devices, Sunnyvale, CA, USA).

[6] = tested on: Bz-insensitive NaCl CT response; set-up: method as in PMID 15146042; details: rat CT recordings, cited from earlier work
hTRPV1 [7] = molecular target: T2, hTRPV1; test: Whole-cell patch clamp recording, hTRPV1-expressing HEK293T cells; assay type: cell-based; details: capsaicin 100 nM; NGCC 10^3 µM; holding -80 mV
Description: Mouse ASIC1a (mASIC1a) was a kind gift from John A. Wemmie (University of Iowa, IA, USA). For electrophysiological experiments, HEK293T cells were cultured in DMEM supplemented with 10% FBS and 0.2% penicillin/streptomycin and transiently transfected using Lipofectamine 2000 (Invitrogen) with various cDNAs. For TRPV1 channel expression, cells were transfected with hTRPV1, for ASIC1a homomeric channel expression, cells were transfected with mASIC1a. When needed, 0.1–0.2 µg of cDNA encoding tetrameric red fluorescence protein (DsRed) was co-transfected with the cDNA as a marker for successfully transfected cells. For non-transfected cells, cells were transfected with 0.1–0.2 µg of cDNA encoding DsRed alone. The next day, cells were plated onto poly-L-lysine-coated coverslip chips, and fluorescent cells were studied within 1–2 days.
as §3

| Compound | block of NGCC activity on hTRPA1-expressing cells (dose-response) (hTRPA1 [1]) | block of AITC activity on hTRPA1-expressing cells (dose-response) (hTRPA1 [1]) | block of NGCC-induced currents in hTRPA1-expressing cells (hTRPA1 [2]; HC-030031 100 µM) | block of AITC-induced current (hTRPA1 [2]; HC-030031 100 µM preincubation 30 seconds, AITC 100 µM) | normalized current density of NGCC-induced current after wash out of HC-030031 (hTRPA1 [2]; n = 4) | normalized current density of NGCC-induced current under HC-030031 (hTRPA1 [2]; n = 4) | inhibition of Ca2+ influx induced by 10 µM AITC and 30 µM NGCC in hTRPA1-expressing cells (hTRPA1 [3]) | block of capsaicin- and NGCC-induced hTRPV1 activation (dose-response) (hTRPV1 [4]) | block of NGCC-induced Ca2+ influx in hTRPV1-expressing cells (hTRPV1 [5]) | effect on the NaCl+Bz CT response at 200 µM ([6]; 200 µM) | concentration giving the maximum increase in the NaCl+Bz CT response [6] [µM] | inward current in cells expressing hTRPV1 (hTRPV1 [7]) |
| --- | --- | --- | --- | --- | --- | --- | --- | --- | --- | --- | --- | --- |
| CC(C)c1ccc(NC(=O)Cn2cnc3c2c(=O)n(C)c(=O)n3C)cc1 [HC-030031] | almost blocked NGCC activity | partially blocked AITC activity | almost completely inhibited | partially blocked | 1.37±0.07 | 0.25±0.03 | significantly inhibited |  |  |  |  |  |
| N.N.N.N.N.N.N.N.N.N.N.N.N.N.[Cl-].[Cl-].[Cl-].[Cl-].[Cl-].[Cl-].[O-2].[O-2].[Ru+3].[Ru+3].[Ru+4] [RR, ruthenium red] | almost blocked NGCC activity | partially blocked AITC activity |  |  |  |  | significantly inhibited | inhibited capsaicin- and NGCC-induced hTRPV1 activation, but was less effective than CPZ | blocked NGCC activity to baseline levels |  |  |  |
| COc1cc(CNC(=O)CCCC/C=C/C(C)C)ccc1O [capsaicin, Capsaicin] |  |  |  |  |  |  |  |  |  | completely inhibited | 40 | induced an inward current |
